Assay [1] has as its system T84 cells. The assay is classed as cell-based, human. The conditions noted are these: 50 μM compound.
The target in assay [2] is pertussis adenylyl cyclase toxin (Bordetella pertussis, UniProt P0DKX7). Description: Cyclic AMP accumulation in T84 cells infected with pertussis adenylyl cyclase toxin. The conditions noted are these: 50 μM compound. It is filed as cell-based. On the procedure: The assay was performed in T84 cells by the methods described in Example 2 and Ahuja, N.; Kumar, P.; Bhatnagar, R., The adenylate cyclase toxins. Crit Rev Microbiol 2004, 30, (3), 187-96, but the amount of cyclic AMP accumulated was assayed with a commercially available kit from Cayman Chemical Co.
Sequence of pertussis adenylyl cyclase toxin (P0DKX7 whole entry, looked up): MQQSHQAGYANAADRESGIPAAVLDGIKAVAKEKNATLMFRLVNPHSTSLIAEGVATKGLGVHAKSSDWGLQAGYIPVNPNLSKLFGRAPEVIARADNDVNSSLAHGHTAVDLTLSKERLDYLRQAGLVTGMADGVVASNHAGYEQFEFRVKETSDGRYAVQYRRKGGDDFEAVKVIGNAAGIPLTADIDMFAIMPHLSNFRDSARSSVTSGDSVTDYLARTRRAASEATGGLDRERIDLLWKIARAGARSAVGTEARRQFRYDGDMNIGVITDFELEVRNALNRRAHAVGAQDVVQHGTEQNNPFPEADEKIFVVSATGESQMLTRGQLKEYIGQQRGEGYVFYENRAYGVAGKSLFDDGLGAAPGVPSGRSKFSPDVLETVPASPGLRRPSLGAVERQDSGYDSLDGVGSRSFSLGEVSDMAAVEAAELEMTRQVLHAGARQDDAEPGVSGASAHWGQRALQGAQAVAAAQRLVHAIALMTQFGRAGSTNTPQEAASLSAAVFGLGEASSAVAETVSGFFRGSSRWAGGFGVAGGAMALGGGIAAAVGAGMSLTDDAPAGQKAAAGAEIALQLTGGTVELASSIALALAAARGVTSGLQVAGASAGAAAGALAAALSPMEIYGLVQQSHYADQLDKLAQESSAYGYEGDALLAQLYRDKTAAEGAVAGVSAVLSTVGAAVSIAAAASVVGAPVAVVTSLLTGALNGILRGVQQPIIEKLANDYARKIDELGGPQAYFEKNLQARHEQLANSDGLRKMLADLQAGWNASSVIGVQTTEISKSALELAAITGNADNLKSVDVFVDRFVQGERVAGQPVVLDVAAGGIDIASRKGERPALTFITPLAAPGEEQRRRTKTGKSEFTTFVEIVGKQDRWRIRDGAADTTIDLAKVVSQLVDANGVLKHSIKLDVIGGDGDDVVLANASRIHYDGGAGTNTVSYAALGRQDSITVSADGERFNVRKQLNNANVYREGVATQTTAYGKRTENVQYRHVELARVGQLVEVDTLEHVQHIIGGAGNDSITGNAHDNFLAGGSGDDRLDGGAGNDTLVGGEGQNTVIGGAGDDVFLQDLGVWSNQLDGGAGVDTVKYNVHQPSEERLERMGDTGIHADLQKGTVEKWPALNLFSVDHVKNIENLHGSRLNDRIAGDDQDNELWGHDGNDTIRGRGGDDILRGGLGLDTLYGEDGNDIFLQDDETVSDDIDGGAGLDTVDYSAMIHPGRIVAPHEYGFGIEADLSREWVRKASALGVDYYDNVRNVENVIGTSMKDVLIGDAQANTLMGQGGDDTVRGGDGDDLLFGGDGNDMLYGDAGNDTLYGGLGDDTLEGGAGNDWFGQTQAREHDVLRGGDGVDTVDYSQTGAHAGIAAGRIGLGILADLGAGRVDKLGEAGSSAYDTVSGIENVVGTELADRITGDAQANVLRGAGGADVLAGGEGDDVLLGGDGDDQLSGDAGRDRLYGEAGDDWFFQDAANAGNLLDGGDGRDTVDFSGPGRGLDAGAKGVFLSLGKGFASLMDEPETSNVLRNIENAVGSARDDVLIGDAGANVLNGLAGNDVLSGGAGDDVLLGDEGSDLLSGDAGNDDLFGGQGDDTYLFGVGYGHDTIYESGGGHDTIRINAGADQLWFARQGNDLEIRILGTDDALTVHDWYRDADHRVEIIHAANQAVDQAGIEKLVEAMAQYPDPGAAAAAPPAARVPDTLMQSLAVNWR
Cells were treated with pertussis adenylyl cyclase toxin at 1 μg/ml in Dulbecco's minimal essential medium for 60 min in the presence of vehicle DMSO (0.1%) or 50 μM compound IIb for 60 min and then medium was aspirated and replaced with DPBS containing 1 mM IBMX and DMSO or compound IIb, respectively, for the vehicle and compound IIb-treated samples. After 10 min incubation, the amount of cyclic AMP was measured. […] N=3.

Assay [3] concerns adenylyl cyclase or guanylyl cyclase. It is filed as cell-based. The conditions noted are these: read-out: typical IC50.
In assay [4] the target is T1, guanylyl cyclase type A (GC-A) (Rattus norvegicus, UniProt P18910).
T1 sequence (P18910 29-1057): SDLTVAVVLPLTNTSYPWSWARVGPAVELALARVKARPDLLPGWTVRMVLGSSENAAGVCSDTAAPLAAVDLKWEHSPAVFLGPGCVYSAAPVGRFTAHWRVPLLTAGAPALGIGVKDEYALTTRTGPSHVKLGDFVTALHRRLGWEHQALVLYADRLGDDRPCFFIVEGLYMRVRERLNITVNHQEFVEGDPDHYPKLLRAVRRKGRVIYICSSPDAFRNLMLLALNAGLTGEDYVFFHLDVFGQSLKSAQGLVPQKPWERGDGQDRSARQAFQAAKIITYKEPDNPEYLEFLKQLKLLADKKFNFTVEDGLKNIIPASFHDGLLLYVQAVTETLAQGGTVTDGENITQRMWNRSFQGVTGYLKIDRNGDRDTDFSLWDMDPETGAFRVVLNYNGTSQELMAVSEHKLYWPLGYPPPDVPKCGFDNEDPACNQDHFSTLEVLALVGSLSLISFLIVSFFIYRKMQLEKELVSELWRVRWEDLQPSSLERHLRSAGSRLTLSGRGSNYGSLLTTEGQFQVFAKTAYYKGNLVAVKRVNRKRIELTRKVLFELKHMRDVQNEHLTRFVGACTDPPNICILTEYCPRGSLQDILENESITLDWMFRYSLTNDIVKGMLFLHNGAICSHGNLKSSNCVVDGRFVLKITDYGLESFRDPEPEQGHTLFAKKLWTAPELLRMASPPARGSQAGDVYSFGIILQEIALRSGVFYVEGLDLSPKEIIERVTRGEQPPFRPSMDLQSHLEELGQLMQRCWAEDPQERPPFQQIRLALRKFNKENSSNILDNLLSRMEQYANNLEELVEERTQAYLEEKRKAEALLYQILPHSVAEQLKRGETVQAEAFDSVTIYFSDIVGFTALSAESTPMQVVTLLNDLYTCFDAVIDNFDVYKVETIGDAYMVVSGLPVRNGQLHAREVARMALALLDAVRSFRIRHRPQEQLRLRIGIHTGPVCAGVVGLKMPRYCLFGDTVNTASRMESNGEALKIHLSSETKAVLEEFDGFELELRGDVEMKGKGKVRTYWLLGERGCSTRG
Description: ANP-induced cyclic GMP accumulation in RFL-6 fibroblast cells. The conditions noted are these: RFL-6 cells, 1 μM ANP, 50 μM compound.

In assay [5] the target is T2, soluble guanylyl cyclase (sGC) (Rattus norvegicus, UniProt P19686+P20595).
T2 sequence (P20595 1-619): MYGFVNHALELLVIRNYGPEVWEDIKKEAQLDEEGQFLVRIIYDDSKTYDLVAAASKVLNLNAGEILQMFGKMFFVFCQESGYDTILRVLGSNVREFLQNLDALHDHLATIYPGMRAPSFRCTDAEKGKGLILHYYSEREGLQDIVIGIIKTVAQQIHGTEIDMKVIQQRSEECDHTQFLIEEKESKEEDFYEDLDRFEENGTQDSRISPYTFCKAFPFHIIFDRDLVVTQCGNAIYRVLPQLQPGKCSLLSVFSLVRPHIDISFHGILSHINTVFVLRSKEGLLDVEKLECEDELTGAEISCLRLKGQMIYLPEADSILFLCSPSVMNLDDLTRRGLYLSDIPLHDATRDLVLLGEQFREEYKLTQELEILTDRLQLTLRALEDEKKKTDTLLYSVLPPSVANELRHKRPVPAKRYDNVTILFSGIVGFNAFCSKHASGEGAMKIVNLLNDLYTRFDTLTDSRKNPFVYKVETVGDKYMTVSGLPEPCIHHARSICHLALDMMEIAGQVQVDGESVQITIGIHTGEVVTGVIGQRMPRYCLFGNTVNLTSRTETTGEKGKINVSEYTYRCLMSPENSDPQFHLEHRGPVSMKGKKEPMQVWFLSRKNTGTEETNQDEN
T2 sequence (P19686 1-690): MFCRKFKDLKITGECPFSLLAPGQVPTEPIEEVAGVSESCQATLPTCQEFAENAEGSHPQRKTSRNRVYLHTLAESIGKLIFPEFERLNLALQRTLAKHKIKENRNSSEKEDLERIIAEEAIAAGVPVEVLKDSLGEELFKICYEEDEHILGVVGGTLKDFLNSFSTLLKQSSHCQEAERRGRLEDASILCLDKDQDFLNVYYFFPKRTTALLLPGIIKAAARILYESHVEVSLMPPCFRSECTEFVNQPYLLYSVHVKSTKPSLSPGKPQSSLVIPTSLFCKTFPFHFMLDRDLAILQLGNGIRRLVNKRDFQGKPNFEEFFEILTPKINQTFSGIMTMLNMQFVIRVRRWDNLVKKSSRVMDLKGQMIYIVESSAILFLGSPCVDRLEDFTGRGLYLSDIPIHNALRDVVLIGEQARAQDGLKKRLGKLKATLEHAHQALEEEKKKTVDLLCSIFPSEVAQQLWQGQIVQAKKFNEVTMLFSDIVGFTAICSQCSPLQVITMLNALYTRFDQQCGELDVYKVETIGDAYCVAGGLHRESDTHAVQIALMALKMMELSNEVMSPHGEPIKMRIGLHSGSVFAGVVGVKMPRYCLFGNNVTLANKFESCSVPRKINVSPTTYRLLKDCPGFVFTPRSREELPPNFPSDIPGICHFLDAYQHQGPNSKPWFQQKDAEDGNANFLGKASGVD
Description: Nitric oxide donor-induced cyclic GMP accumulation in RFL-6 fibroblast cells. The conditions noted are these: RFL-6 cells, 10 μM benzotrifuroxan, 50 μM compound.

For the molecule `Cn1c2c(c(=O)n(C)c1=O)C(c1cccc(Br)c1)C1=C(N2)c2ccccc2C1=O` (centres unmarked) [compound IIb], in assay [1], the “increase in chloride efflux induced by 8-bromo cyclic AMP or ionomycin” value was “not influenced”; the “increase in chloride efflux induced by isoproterenol, cholera toxin and forskolin” value is reported as “significantly suppressed”. Also, the “chloride anion efflux, increase in fluorescence of MQAE” value in assay [1] (50 μM forskolin, forskolin alone 2690, baseline 477) worked out at 428 relative units in 10 min. Further, the “cyclic AMP accumulation” value in assay [2] (toxin 1 μg/ml 60 min, vehicle 9.97±0.72) is listed as 4.06±0.44 nmol/mg protein. For the same molecule, the “decrease of cyclic AMP accumulation” value in assay [2] (toxin 1 μg/ml) is recorded as 59.2%. Moreover, the 50% inhibitory concentration (IC50) (as a rule, the concentration that inhibits the measured activity by half) in assay [3] was ~5 µM. For the same molecule, the “inhibition of cyclic GMP accumulation (FIG. 6)” value in assay [4] is reported as “inhibition”. Further, in assay [5], the “inhibition of cyclic GMP accumulation (FIG. 6)” value is recorded as “inhibition”.

The values are drawn from patent US20100035867A1 (priority 2006, published 2010).
